ChEMBL document CHEMBL2203256, “Design and evaluation of azaindole-substituted N-hydroxypyridones as glyoxalase I inhibitors” (Bioorg Med Chem Lett, 2012)

Assays:
Liver [1] = assay: Clearance in mouse liver microsomes assessed per mg of protein at 1 uM after 30 mins in absence of NADPH; assay type: ADME, Microsome; conditions: 0.5 h
Lactoylglutathione lyase = Lactoylglutathione lyase (Homo sapiens, UniProt Q04760); assay: Inhibition of human recombinant GLO1 expressed in Escherichia coli BL21 assessed as decrease in reduced glutathione level after 1 hr by Ellman's method
Chain of Lactoylglutathione lyase (Q04760 whole entry): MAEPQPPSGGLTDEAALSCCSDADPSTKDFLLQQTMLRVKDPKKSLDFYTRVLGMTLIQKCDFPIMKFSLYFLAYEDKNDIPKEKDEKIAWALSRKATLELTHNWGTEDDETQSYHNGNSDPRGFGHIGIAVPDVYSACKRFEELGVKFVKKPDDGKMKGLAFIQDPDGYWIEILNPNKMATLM

Liver [2] = assay: Clearance in mouse liver microsomes assessed per mg of protein at 1 uM after 30 mins in presence of NADPH; assay type: ADME, Microsome; conditions: 0.5 h
[3] = Half life in human serum at […]; assay type: ADME, cell-free
[4] = Half life in mouse serum at […]; assay type: ADME, cell-free
Liver microsomes [5] = assay: Clearance in human liver microsomes assessed per mg of protein at 1 uM after 30 mins in presence of NADPH; assay type: ADME, Microsome; conditions: 0.5 h
Liver microsomes [6] = assay: Clearance in human liver microsomes assessed per mg of protein at 1 uM after 30 mins in absence of NADPH; assay type: ADME, Microsome; conditions: 0.5 h

IC50 (Lactoylglutathione lyase) [µM] | Structure (SMILES) | other results
1.19 | O=c1cc(-c2ccccc2)cc(-c2ccccc2)n1O | CLint (Liver [1]): 6.8 µL/min/mg; CLint (Liver [2]): 28 µL/min/mg; half-life [3]: 48.3 h; half-life [4]: 7.33 h; CLint (Liver microsomes [5]): 16 µL/min/mg; CLint (Liver microsomes [6]): 6.6 µL/min/mg
0.26 | COCCn1ccc2cc(-c3cc(-c4ccccc4)cc(=O)n3O)ccc21 | –
0.3 | COCCCn1ccc2cc(-c3cc(-c4ccccc4)cc(=O)n3O)ccc21 | –
0.3 | CCCCn1ccc2cc(-c3cc(-c4ccccc4)cc(=O)n3O)cnc21 | –
0.51 | CCCCCn1ccc2cc(-c3cc(-c4ccccc4)cc(=O)n3O)cnc21 | –
1.52 | O=c1cc(-c2ccsc2)cc(-c2ccccc2)n1O | –
8.28 | O=c1cc(-c2cccnc2)cc(-c2ccccc2)n1O | –
8.13 | O=c1cc(-c2ccc(C(F)(F)F)cc2)cc(-c2ccccc2)n1O | –
8.4 | O=c1cc(-c2ccc(-c3ccccc3)cc2)cc(-c2ccccc2)n1O | –
> 10 | CCC#Cc1cc(-c2ccccc2)n(O)c(=O)c1 | –
> 10 | CCCCc1cc(-c2ccccc2)n(O)c(=O)c1 | –
0.28 | O=c1cc(-c2ccccc2)cc(-c2cnc3[nH]ccc3c2)n1O | –
0.25 | O=c1cc(-c2ccccc2)cc(-c2ccc3[nH]ccc3c2)n1O | –
0.04 | NC(=O)c1cccc(Cn2ccc3cc(-c4cc(-c5ccccc5)cc(=O)n4O)cnc32)c1 | –
0.48 | NC(=O)c1cccc(Cn2ccc3cc(-c4cc(-c5ccccc5)cc(=O)n4O)ccc32)c1 | –
0.014 | COCCn1ccc2cc(-c3cc(-c4ccccc4)cc(=O)n3O)cnc21 | –
